In ChEMBL document CHEMBL1157243, “The sapogenin atroviolacegenin and its diglycoside atroviolaceoside from Allium atroviolaceum” (2006):
Activity calls are given as the source filed them. No cut-off for these calls is given here.

Tested on: Ileum
Assay: Antispasmodic activity in guinea pig ileum assessed as inhibition of histamine-induced tissue contraction at 10^-8 to 10^-5 M after 30 mins
Format: functional

For `C[C@H]1[C@H]2[C@H](C[C@H]3[C@@H]4C[C@@H](O)[C@H]5C[C@@H](O)[C@H](O)C[C@]5(C)[C@H]4CC[C@]23C)O[C@]12CCC(CO)CO2` (single isomer, unassigned), the Activity (Cavia porcellus) was “inactive”.
`C[C@H]1[C@H]2[C@H](C[C@H]3[C@@H]4C[C@@H](O)[C@H]5C[C@@H](O[C@@H]6O[C@H](CO)[C@H](O[C@@H]7O[C@H](CO)[C@@H](O)[C@H](O)[C@H]7O)[C@H](O)[C@H]6O)[C@H](O)C[C@]5(C)[C@H]4CC[C@]23C)O[C@]12CC[C@@H](CO)CO2` [ATROVIOLACEOSIDE] was tested, and the “inhibition (INH)” value was 0%.
For `C[C@H](CC[C@@]1(O)O[C@H]2C[C@H]3[C@@H]4CC=C5C[C@@H](O)C[C@@H](O[C@@H]6O[C@H](CO)[C@H](O)[C@H](O)[C@H]6O)[C@]5(C)[C@H]4CC[C@]3(C)[C@H]2[C@@H]1C)CO[C@@H]1O[C@H](C)[C@@H](O)[C@H](O)[C@@H]1O` [TROPEOSIDE A1], the “inhibition (INH)” value was 50%.
`C[C@H](CC[C@]1(O)O[C@H]2C[C@H]3[C@@H]4CC=C5C[C@@H](O)C[C@@H](O[C@@H]6O[C@H](CO)[C@H](O)[C@H](O)[C@H]6O)[C@]5(C)[C@H]4CC[C@]3(C)[C@H]2[C@@H]1C)CO[C@@H]1O[C@H](C)[C@@H](O)[C@H](O)[C@@H]1O` [TROPEOSIDE A2] was tested, and the “inhibition (INH)” value was 50%.
With `C[C@H](CC[C@@]1(O)O[C@H]2C[C@H]3[C@@H]4CC=C5C[C@@H](O)C[C@@H](O[C@@H]6OC[C@@H](O)[C@H](O)[C@H]6O)[C@]5(C)[C@H]4CC[C@]3(C)[C@H]2[C@@H]1C)CO[C@@H]1O[C@H](C)[C@@H](O)[C@H](O)[C@@H]1O` [TROPEOSIDE B1] the “inhibition (INH)” value was 50%.
`C[C@H](CC[C@]1(O)O[C@H]2C[C@H]3[C@@H]4CC=C5C[C@@H](O)C[C@@H](O[C@@H]6OC[C@@H](O)[C@H](O)[C@H]6O)[C@]5(C)[C@H]4CC[C@]3(C)[C@H]2[C@@H]1C)CO[C@@H]1O[C@H](C)[C@@H](O)[C@H](O)[C@@H]1O` [TROPEOSIDE B2] was tested, and the “inhibition (INH)” value was 50%.
